Structures are written as SMILES. Some results are limits rather than exact numbers.

These results are taken from US9044463B2, “FSH receptor antagonists” (Merck Sharp & Dohme B.V., priority 2011, dated 2015).

This experiment addresses T1, human FSH receptor (Homo sapiens, UniProt P23945).
T1 construct: expressed in transfected cells; host or cells: CHO (Chinese Hamster Ovary) cells, stably transfected; cotransfected with a CRE-luciferase reporter
T1 sequence (P23945 18-695): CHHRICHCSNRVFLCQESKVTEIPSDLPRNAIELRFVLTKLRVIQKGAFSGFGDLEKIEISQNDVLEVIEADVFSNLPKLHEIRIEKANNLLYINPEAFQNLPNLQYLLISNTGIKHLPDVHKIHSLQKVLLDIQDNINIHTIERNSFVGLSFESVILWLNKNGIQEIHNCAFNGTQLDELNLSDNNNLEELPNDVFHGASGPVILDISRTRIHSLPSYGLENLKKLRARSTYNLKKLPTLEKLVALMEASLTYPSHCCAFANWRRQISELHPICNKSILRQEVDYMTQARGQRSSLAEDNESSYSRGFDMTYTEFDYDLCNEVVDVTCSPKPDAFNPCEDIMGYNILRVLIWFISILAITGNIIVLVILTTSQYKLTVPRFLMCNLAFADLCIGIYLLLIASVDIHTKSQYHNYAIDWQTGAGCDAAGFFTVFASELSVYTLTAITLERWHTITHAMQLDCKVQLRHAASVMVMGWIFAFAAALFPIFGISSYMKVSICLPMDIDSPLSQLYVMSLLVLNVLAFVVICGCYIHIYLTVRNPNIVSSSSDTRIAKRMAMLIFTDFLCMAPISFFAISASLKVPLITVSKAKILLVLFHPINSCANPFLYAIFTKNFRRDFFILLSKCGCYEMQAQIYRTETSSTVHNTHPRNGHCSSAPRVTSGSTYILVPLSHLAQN
Kind of experiment: Antagonistic activity at the human FSH receptor expressed in CHO cells (CRE-luciferase reporter). In kind it is cell-based. The note with it: CHO cells stably transfected with human FSH receptor and CRE-luciferase; with 49 μM recFSH; 4 hours incubation; read-out: IC50 (inhibition of recFSH-induced luciferase stimulation). For orientation: Reporter assays use an easily measured gene product as a stand-in for the process of interest.

What is called IC50 is the concentration that gives 50% inhibition. For the molecule `COc1cc2c(cc1OCC1CC1)COc1cc(-c3ccccc3F)c(C(=O)N[C@@H](CO)Cc3c[nH]c4ccccc34)cc1-2` [Example 49, 8-(cyclopropylmethoxy)-3-(2-fluorophenyl)-N—((R)-1-hydroxy-3-(1H-indol-3-yl)propan-2-yl)-9-s methoxy-6H-benzo[c]chromene-2-carboxamide], the IC50 was less than 0.1 µM.

In the case of `COc1cc2c(cc1-c1cccnc1)COc1cc(-c3ccccc3F)c(C(=O)N[C@@H](CO)Cc3c[nH]c4ccccc34)cc1-2` [Example 50, 3-(2-fluorophenyl)-N—((R)-1-hydroxy-3-(1H-indol-3-yl)propan-2-yl)-9-methoxy-8-(pyridin-3-v)-6H-benzo[c]chromene-2-carboxamide], the IC50 is less than 0.1 µM.

In the case of `COc1cc2c(cc1-c1cnn(C)c1)COc1cc(-c3ccccc3F)c(C(=O)N[C@@H](CO)Cc3c[nH]c4ccccc34)cc1-2` [Example 51, 3-(2-fluorophenyl)-N—((R)-1-hydroxy-3-(1H-indol-3-yl)propan-2-yl)-9-methoxy-8-(1-methyl-1H-pyrazol-4-yl)-6H-benzo[c]chromene-2-carboxamide], the IC50 is less than 0.1 µM.

As for `COc1cc2c(cc1-c1ccncc1)COc1cc(-c3ccccc3F)c(C(=O)N[C@@H](CO)Cc3c[nH]c4ccccc34)cc1-2` [Example 52, 3-(2-fluorophenyl)-N—((R)-1-hydroxy-3-(1H-indol-3-yl)propan-2-yl)-9-methoxy-8-(pyridin-4)-6H-benzo[c]chromene-2-carboxamide], the IC50 was less than 0.1 µM.

Turning to `O=C(N[C@@H](CO)Cc1c[nH]c2ccccc12)c1cc2c(cc1-c1ccccc1F)OCc1cc(C(=O)N3CCOCC3)ccc1-2` [Example 53, 3-(2-fluorophenyl)-N—((R)-1-hydroxy-3-(1H-indol-3-yl)propan-2-yl)-8-(morpholine-4-carbonyl)-6H-benzo[c]chromene-2-carboxamide], the IC50 was less than 0.1 µM.

On to `CN(C)C(=O)c1ccc2c(c1)COc1cc(-c3ccccc3F)c(C(=O)N[C@@H](CO)Cc3c[nH]c4ccccc34)cc1-2` [Example 54, 3-(2-fluorophenyl)-N2-((R)-1-hydroxy-3-(1H-indol-3-yl)propan-2-yl)-N8,N8-dimethyl-6H-benzo[c]chromene-2,8-dicarboxamide], for which the IC50 was less than 0.1 µM.

Consider `O=C(N[C@@H](CO)Cc1c[nH]c2ccccc12)c1cc2c(cc1-c1ccccc1F)OCc1cc3c(cc1-2)OCO3` [Example 55, 3-(2-fluorophenyl)-N—((R)-1-hydroxy-3-(1H-indol-3-yl)propan-2-yl)-8,9-(1′,3′-dioxolo)-6H-benzo[c]chromene-2-carboxamide], for which the IC50 was less than 0.1 µM.

For the molecule `Cc1ccsc1-c1cc2c(cc1C(=O)N[C@@H](CO)Cc1c[nH]c3ccccc13)-c1cc3c(cc1CO2)OCO3` [Example 56, N—((R)-1-hydroxy-3-(1H-indol-3-yl)propan-2-yl)-8,9-(1′,3′-dioxolo)-3-(3-methylthiophen-2-yl)-6H-benzo[c]chromene-2-carboxamide], the IC50 is less than 0.1 µM.

Regarding `CC(C)Oc1cc2oc(=O)c3cc4c(cc3c2cc1C(=O)N[C@@H](CO)Cc1c[nH]c2ccccc12)OCO4` [Example 57, N—((R)-1-hydroxy-3-(1H-indol-3-yl)propan-2-v)-8,9-(1′,3′-dioxolo)-3-(3-isopropoxy)-6-oxo-6H-benzo[c]chromene-2-carboxamide], the IC50 lay within 0.1 to 1 µM.

For the molecule `COc1cc2c(cc1OC)-c1cc(C(=O)N[C@@H](CO)Cc3c[nH]c4ccccc34)c(OC(C)C)cc1CC2` [Example 58, (R)-2-isopropoxy-N-(1-hydroxy-3-(1H-indol-3-yl)propan-2-yl)-6,7-dimethoxy-9,10-dihydrophenanthrene-3-carboxamide], the concentration for half-maximal inhibition (IC50) was less than 0.1 µM.
